“Also recorded” adds a separate entry of the source.

For assay [1] the following is noted: aerosolised; patient with cystic fibrosis and secondary pulmonary hypertension; cited from earlier work.
Assay [2] relates to human erythrocytes. Particulars: cited from earlier work.
Assay [3] concerns rabbit erythrocytes. Particulars: cited from earlier work.
In assay [4] the test system is cystic fibrosis transmembrane conductance regulator/Cl- channel (CFTR). The assay can be described thus: Whole cell patch clamp of treprostinil-induced Cl- currents through CFTR, Example 3. Particulars: for effect on treprostinil-induced CFTR current of adding PDE4 inhibitor: added on top of treprostinil. It counts as cell-based, human. The protocol: The following human bronchial epithelial cell lines were obtained through ATCC: BEAS-2B (ATCC CRL-9609), NuLi-1 (ATCC CRL-4011), IB3-1 (ATCC CRL-2777), CuFi-1 (ATCC CRL-4013). Cells were propagated using the culture conditions outlined in the ATCC recommendations, e.g., I3B-1 cells were maintained on dishes coated with fibronectin (10 μg/m) rat collagen I (30 μg/ml) and BSA 10 μg/mL) in LHC-8 medium (Gibco) containing 5% fetal calf serum (FCS) at 37° C. in a 5% CO2 humified atmosphere. BEAS-2B cells were maintained at 37° C. in a 5% CO2 humified atmosphere on dishes precoated with collagen IV (60 μg/ml in 0.25% acetic acid) in BEGM medium (Lonza); the GA-1000 (gentamycin-amphotericin B mix) provided with the BEGM kit was not added to the medium. The level of endogenous expression of CFTR was too low to obtain a reliable signal. Accordingly, BEAS-2B cells were transiently transfected with a plasmid driving the expression of human GFP-tagged wild type CFTR by using Lipofectamine Plus® (Invitrogen) according to the instructions of the manufacturer. Cells expressing this GFP-tagged CFTR were identified by fluorescence microscopy and subjected to patch clamp recordings as outlined below. The whole cell patch clamp technique was used for current recordings performed at 22±1.5° C. using an Axoclamp 200B patch clamp amplifier (Axon Instruments). Pipettes had resistances between 1 and 2 MO when filled with the recording pipette solution (composition: 110 mM CsCl, 5 mM EGTA, 2 mM MgCl2, 1 mM K2.ATP, 10 mM Hepes, pH adjusted to 7.2 with CsOH). Voltage-clamp protocols and data acquisition were performed with […] 6.0 software (Axon Instruments). Data were low-pass filtered at 2 kHz (-3 dB) and digitized at 10-20 kHz. Cells were continuously superfused with external solution (composition: 145 mM NaCl, 4.5 mM KCl, 2 mM CaCl2, 1 mM MgCl2, 5 mM glucose, 10 mM Hepes, pH adjusted to 7.4 with NaOH). When indicated, the external solution contained Treprostinil (10 μM) or forskolin (5 μM), switching between solutions was achieved by electronically controlled pressure valves.

In assay [5] the test system is CFTR-wt. As to the kind of experiment: Whole cell patch clamp of Cl- current in IB3-1 cells transiently expressing GFP-tagged wild type CFTR. It counts as cell-based, human.
Procedure: The whole cell patch clamp technique was used for current recordings performed at 22±1.5° C. using an Axoclamp 200B patch clamp amplifier (Axon Instruments). Pipettes had resistances between 1 and 2 MΩ when filled with the recording pipette solution (composition: 110 mM CsCl, 5 mM EGTA, 2 mM MgCl2, 1 mM K2.ATP, 10 mM Hepes, pH adjusted to 7.2 with CsOH). […] Data were low-pass filtered at 2 kHz (-3 dB) and digitized at 10-20 kHz. Cells were continuously superfused with external solution (composition: 145 mM NaCl, 4.5 mM KCl, 2 mM CaCl2, 1 mM MgCl2, 5 mM glucose, 10 mM Hepes, pH adjusted to 7.4 with NaOH). When indicated, the external solution contained Treprostinil (10 μM) or forskolin (5 μM), switching between solutions was achieved by electronically controlled pressure valves. IB3-1 cells were grown on dishes (Nunc, 3.5 cm diameter) covered with fibronectin (10 μg/mL) rat collagen I (30 μg/mL) and BSA 10 μg/mL) in LHC-8 medium (Gibco) containing 5% fetal calf serum (FCS). Cells were transiently transfected with a plasmid driving the expression of human GFP-tagged wild type CFTR by using Lipofectamine Plus® (Invitrogen) according to the instructions of the manufacturer. […] A transiently transfected IB3-1 cell expressing GFP-tagged wild type CFTR was selected under fluorescent light and clamped to a holding potential at -40 mV. Depolarization was induced by a voltage step to +60 mV for 50 ms and the current amplitude was recorded. Wash-in of Treprostinil (10 μM final concentration, TP) was initiated at the time point 50 s and terminated at 125 s. Forskolin was washed in at 275 s and was removed at 375 s.
In assay [6] the test system is IB3-1 cells. The assay can be described thus: Treprostinil-induced [3H]cAMP accumulation in IB3-1 cells with or without PDE inhibitors. Type of assay: cell-based, human. Conditions: for accumulation of cAMP with PDE3 inhibitors: in experiments.
Procedure: IB3-1 cells were plated on 6 well-plates (0.2*10^6 cells/well in FIG. 1; 0.4*10^6 cells in FIG. 2) in complete growth medium (LHC-8+5% FCS). The following day, the adenine nucleotide pool was metabolically labeled by incubation with [3H]adenine (1 μCi/well) in Dulbecco's Modified Eagle Medium (DMEM) containing adenosine deaminase (1 unit/ml) for 4 h. Thereafter the medium was replaced with fresh medium; the cells were stimulated by sole addition of Treprostinil (in logarithmically spaced concentrations ranging from 0.1 to 30 μM) or of Treprostinil in combination with the indicated concentrations of PDE-inhibitors. After an incubation of 30 min, the cells were lysed by the addition of perchloric acid. The formation of [3H]cAMP was determined by sequential chromatography on Dowex 50WX-4 and neutral alumina columns followed by liquid scintillation counting of the eluate. The assay was performed in triplicate. IB3-1 cells were seeded onto PDL-coated wells of 6-well plates (2 to 2.5*10^5 cells/well) in complete growth medium (LHC-8+5% FCS). On the following day, the cellular adenine nucleotide pool was metabolically labelled by incubation with [^3H]adenine (1 μCi/well) in Dulbecco's Modified Eagle Medium (DMEM) in the presence of adenosine deaminase (5 μg/ml) for 4 h. Subsequently, the medium was replaced with fresh DMEM and the formation of cAMP was stimulated by addition of 5 μM forskolin, a direct activator of the adenylyl cyclase, or 10 μM treprostinil in the absence and presence of different concentrations of the following phosphodiesterase (PDE) inhibitors: ibudilast (0.3-1000 μM), Ro-20-1724 (0.03-300 μM), roflumilast (1 nM-10 μM), dipyridamole (0.01-100 μM), aminone (1, 10, 100 μM), anagrelide (1, 10, 100 μM), enoximone (1, 10, 100 μM), milrinone (1, 10, 100 μM) and cilostazol (0.1 to 100 μM) for 20 min at 37° C. […] The formation of [^3H]cAMP was quantified by liquid scintillation counting.
Assay [7] concerns IB3-1 cells. As to the kind of experiment: Forskolin-triggered [3H]cAMP accumulation in IB3-1 cells with PDE inhibitors. Conditions: 5 μM forskolin. It counts as cell-based, human. The protocol: IB3-1 cells were seeded onto PDL-coated wells of 6-well plates (2 to 2.5*10^5 cells/well) in complete growth medium (LHC-8+5% FCS). On the following day, the cellular adenine nucleotide pool was metabolically labelled by incubation with [^3H]adenine (1 μCi/well) in Dulbecco's Modified Eagle Medium (DMEM) in the presence of adenosine deaminase (5 μg/ml) for 4 h. Subsequently, the medium was replaced with fresh DMEM and the formation of cAMP was stimulated by addition of 5 μM forskolin, a direct activator of the adenylyl cyclase, or 10 μM treprostinil in the absence and presence of different concentrations of the following phosphodiesterase (PDE) inhibitors: ibudilast (0.3-1000 μM), Ro-20-1724 (0.03-300 μM), roflumilast (1 nM-10 μM), dipyridamole (0.01-100 μM), aminone (1, 10, 100 μM), anagrelide (1, 10, 100 μM), enoximone (1, 10, 100 μM), milrinone (1, 10, 100 μM) and cilostazol (0.1 to 100 μM) for 20 min at 37° C. In some instances, the effect of these inhibitors on basal cAMP accumulation was examined by incubating cells in the absence of any additional stimulus with increasing concentrations of PDE-inhibitors (i.e., dipyridamole, ibudilast and Ro-20-1724 at 1, 10 and 100 μM; roflumilast at and 0.1, 1 and 10 μM of Roflumilast). Concentration-response curves for treprostinil were obtained by adding treprostinil (0.1 to 30 μM) alone or in combination with 100 μM Ro-20-1724, 100 μM ibudilast or 5 μM roflumilast. The reaction performed in triplicate was stopped by adding 2.5% perchloric acid together with 0.1 mM (unlabelled) cAMP. [^3H]cAMP was isolated by sequential chromatography on Dowex 50W-X4 and neutral alumina columns. The formation of [^3H]cAMP was quantified by liquid scintillation counting.

`CC#CCC(C)[C@H](O)/C=C/[C@@H]1[C@H]2C/C(=C/CCCC(=O)O)C[C@H]2C[C@H]1O` (stereo partly drawn) [Iloprost, 5-{(E)-(1S,5S,6R,7R)-7-hydroxy-6-[(E)-(3S,4RS)-3-hydroxy-4-methyl-1-octen-6-inyl]-bi-cyclo[3.3.0]octan-3-ylidene}pentanoic acid]: in assay [1], the pulmonary artery pressure entry is given as “effective in lowering pulmonary artery pressure”.
Regarding `CCCCC[C@H](O)CC[C@@H]1[C@H]2Cc3cccc(OCC(=O)[O-])c3C[C@H]2C[C@H]1O.[Na+]` [Treprostinil, (1R,2R,3aS,9aS)-[[2,3,3a,4,9,9a-hexahydro-2-hydroxy-1-[(3S)-3-hydroxyoctyl]-1H-benz[f]inden-5-yl]oxy]acetic acid monosodium salt], the “receptor-mediated cAMP synthesis and ATP release” value in assay [2] and in assay [3] was “stimulate” in each case. In addition, in assay [4] (voltage jumps from −20 to −80 mV), the “activation of CFTR (outward current)” value is given as “sustained activation of CFTR”. Besides, the “activation of the current (CFTR)” value in assay [5] (10 μM Treprostinil, depolarization from −40 mV holding potential to +60 mV, monosodium salt) is given as “robust activation; also recorded: can activate CFTR”. The “time for current to decay to basal after washout” value in assay [5] (10 μM treprostinil) was roughly 100 s.
Turning to `O=C1CCc2cc(OCCCCc3nnnn3C3CCCCC3)ccc2N1` [Cilostazol], in assay [6], the “accumulation of cAMP with PDE3 inhibitors” value is listed as “did not induce any accumulation of cAMP”.
For `CCCCOc1cc(CC2CNC(=O)N2)ccc1OC` (centres unmarked) [RO20-1724], the “enhancement of the cAMP accumulation triggered by forskolin” value (“enhancement” below) in assay [7] is “substantially enhanced”. Also, in assay [7] (compared with roflumilast), the “relative efficacy, forskolin-triggered cAMP accumulation” value is given as “more effective than roflumilast”. In assay [4], the “effect on treprostinil-induced CFTR current of adding PDE4 inhibitor” value is given as “additional increase of the current”.
`OCCN(CCO)c1nc(N2CCCCC2)c2nc(N(CCO)CCO)nc(N3CCCCC3)c2n1` [dipyridamole]: the “efficacy in treprostinil-triggered cAMP accumulation” value in assay [6] (10 μM treprostinil) is reported as “higher efficacy”. Moreover, in assay [7], the “enhancement” value is given as “substantially enhanced” and the “relative potency as inhibitor, forskolin-triggered cAMP accumulation” value was “less potent inhibitor”.
As for `O=C1CN2Cc3c(ccc(Cl)c3Cl)N=C2N1` [Anagrelide], the “accumulation of cAMP with PDE3 inhibitors” value in assay [6] is reported as “did not induce any accumulation of cAMP”.
As for `O=C(Nc1c(Cl)cncc1Cl)c1ccc(OC(F)F)c(OCC2CC2)c1` [Roflumilast, 3-(cyclopropylmethoxy)-N-(3,5-dichloropyridin-4-yl)-4-(difluoromethoxy)benzamide], in assay [7], the “enhancement” value is “substantially enhanced” and the “relative potency as inhibitor, forskolin-triggered cAMP accumulation” value is “most potent inhibitor”. Besides, the “effect on treprostinil-induced CFTR current of adding PDE4 inhibitor” value in assay [4] is reported as “additional increase of the current”.

The record behind these values is patent publication US9504663B2, “Composition for the treatment of cystic fibrosis” (SciPharm SaRL, priority 2011, dated 2016).
